The numbers were not newly measured in patent US20050220825A1, “Molecular dispersions of drospirenone” (priority 2004, published 2005), which cites them from elsewhere.

For data set [1] the following is noted: within 30 minutes, hydrochloric acid solution pH about 1.0.
The conditions of data set [2]: drospirenone in micronised form; background statement.

Consider `C[C@]12CCC(=O)C=C1[C@@H]1C[C@@H]1[C@H]1[C@@H]3[C@@H]4C[C@@H]4[C@@]4(CCC(=O)O4)[C@@]3(C)CC[C@@H]12` [drospirenone], for which the “drospirenone degraded into its therapeutically inactive isomer” value in data set [1] is reported as around 50%. In data set [2], the “drospirenone dissolved at 30 minutes after start of dissolution testing” value is reported as “at least 70%”.
